Assay: diffusion through polydimethylsiloxane membrane (MAPI, electrospray mass spectrometry detection)
Type: physicochemical
Settings: polydimethylsiloxane membrane 0.01 to 0.05 inches thick; result in words, curves in FIGS. 8-11
From the text: In operation, once the membrane and spacer are in place and the top portion 50 and bottom plate 56 are secured, a substance under study can be placed in contact with the first side of the membrane. Carrier fluid can be flowing through volume 64 and to a detection means. As the substance diffuses through the membrane and exits the second side of the membrane, it can be carried to the detection apparatus for analysis. In this way, an accurate time dependent curve can be generated as to the amounts of the substance under study exiting the second side of the membrane. This example illustrates the results from diffusion of a variety of substances through polydimethylsiloxane membrane obtained from PILLAR SCIENTIFIC, ranging in thickness from 0.01 inches to 0.05 inches. A mass spectrometer was used as a detection apparatus with electrospray ionization utilized to ionize the sample for detection in the mass spectrometer.

Compound	diffusion through the membrane (relative abundance exiting the second side as a function of time)
Clc1cccc(Cl)c1N=C1NCCN1 [clonidine]	clonidine diffusing through the membrane
CCOC(=O)c1ccc(O)cc1 [ethyl paraben]	diffusion of ethyl paraben through the polydimethylsiloxane membrane
COC(=O)c1ccc(O)cc1 [methyl paraben]	diffusion of methyl paraben through the polydimethylsiloxane membrane
CCCCOC(=O)c1ccc(O)cc1 [n-butyl paraben]	diffusion of n-butyl paraben through the polydimethylsiloxane membrane

— US6360588B1, “Materials and methods for the analysis of substances passing through a membrane” (priority 1998, dated 2002)
